Laboratory results from the supplement of paper PMC10307832.

Legend:
Experiment in all cases: relative viability (nuclei count vs DMSO), 5 days (fraction); higher = more cells survive
[1] = compound: C1COCCN1C2=NC(=NC3=C2OC4=C3C=CC=N4)C5=CC(=CC=C5)NC(=O)C6=CN=C(C=C6)N + C[C@]1(O)C[C@@H](c2nc(-c3ccc4ccc(-c5ccccc5)nc4c3)c3c(N)nccn32)C1 [Linsitinib] (partner 1 µM)
Method in brief: (§1)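 Relative viability was taken as the ratio of nuclei in treated wells to nuclei in vehicle wells. Lung cancer cell lines in 1536-well plates received compounds by pin tool one day after seeding, either one drug alone or a fixed anchor-drug dose plus five library-drug doses (not always all listed) in √10 steps. Nuclei were counted on 4× images after 5 days of treatment, and values are medians of duplicate plates.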

[2] = compound: C1COCCN1C2=NC(=NC3=C2OC4=C3C=CC=N4)C5=CC(=CC=C5)NC(=O)C6=CN=C(C=C6)N + Cc1nc(NC(=O)N2CCC[C@H]2C(N)=O)sc1-c1ccnc(C(C)(C)C(F)(F)F)c1 [Alpelisib] (partner 2 µM)
Method in brief: as §1

[3] = compound: C1COCCN1C2=NC(=NC3=C2OC4=C3C=CC=N4)C5=CC(=CC=C5)NC(=O)C6=CN=C(C=C6)N + O=C(c1cc(Cc2n[nH]c(=O)c3ccccc23)ccc1F)N1CCN(C(=O)C2CC2)CC1 [Olaparib] (partner 8 µM)
Method in brief: as §1

[4] = compound: C1COCCN1C2=NC(=NC3=C2OC4=C3C=CC=N4)C5=CC(=CC=C5)NC(=O)C6=CN=C(C=C6)N + C[C@@H](Oc1cc(-c2cnn(C3CCNCC3)c2)cnc1N)c1c(Cl)ccc(F)c1Cl [Crizotinib] (partner 1 µM)
Method in brief: as §1

Row | Cell Line | relative viability ([1]; first compound 0.02 µM) | relative viability ([1]; first compound 0.06325 µM) | relative viability ([1]; first compound 0.2 µM) | relative viability ([1]; first compound 0.6325 µM) | relative viability ([1]; first compound 2 µM) | relative viability ([2]; first compound 0.02 µM) | relative viability ([2]; first compound 0.06325 µM) | relative viability ([2]; first compound 0.2 µM) | relative viability ([2]; first compound 0.6325 µM) | relative viability ([2]; first compound 2 µM) | relative viability ([3]; first compound 0.02 µM) | relative viability ([3]; first compound 0.06325 µM) | relative viability ([3]; first compound 0.2 µM) | relative viability ([3]; first compound 0.6325 µM) | relative viability ([3]; first compound 2 µM) | relative viability ([4]; first compound 0.02 µM) | relative viability ([4]; first compound 0.06325 µM) | relative viability ([4]; first compound 0.2 µM) | relative viability ([4]; first compound 0.6325 µM) | relative viability ([4]; first compound 2 µM)
1 | NCI-H647 | 1.11 | 1.27 | 1.19 | 0.901 | 0.588 | 1.21 | 1.33 | 0.996 | 1.21 | 0.356 | 0.684 | 0.69 | 0.573 | 0.606 | 0.256 | 1.16 | 1.17 | 0.943 | 1.09 | 0.283
2 | NCI-H650 | 0.876 | 0.876 | 0.857 | 0.837 | 0.659 | 1.07 | 1.12 | 1.06 | 1.04 | 0.824 | 0.403 | 0.405 | 0.379 | 0.371 | 0.408 | 0.654 | 0.713 | 0.798 | 0.755 | 0.559
3 | NCI-H661 | 0.533 | 0.645 | 0.645 | 0.421 | 0.386 | 0.703 | 0.698 | 0.664 | 0.531 | 0.728 | 0.789 | 0.832 | 0.717 | 0.876 | 0.426 | 1.16 | 1.27 | 0.971 | 1.12 | 0.932
4 | NCI-H727 | 0.284 | 0.31 | 0.24 | 0.257 | 0.256 | 0.472 | 0.418 | 0.51 | 0.693 | 0.341 | 0.723 | 0.802 | 0.746 | 0.605 | 0.606 | 0.908 | 0.962 | 0.739 | 0.725 | 0.505
5 | NCI-H838 | 0.977 | 1.08 | 0.933 | 0.78 | 0.371 | 1.12 | 0.945 | 0.923 | 0.968 | 0.524 | 0.86 | 0.812 | 0.743 | 0.741 | 0.353 | 0.901 | 0.809 | 0.674 | 0.722 | 0.439
6 | NCI-H1299 | 0.922 | 1.13 | 0.953 | 1 | 0.805 | 1.1 | 1.11 | 1.09 | 1.06 | 0.857 | 0.928 | 1.04 | 0.993 | 0.962 | 0.754 | 0.942 | 0.95 | 0.937 | 0.958 | 0.669
7 | NCI-H1355 | 0.871 | 0.933 | 0.815 | 0.789 | 0.68 | 0.833 | 0.933 | 0.858 | 0.747 | 0.759 | 0.736 | 0.886 | 0.781 | 0.757 | 0.572 | 0.969 | 1.21 | 1.07 | 1.02 | 0.936
8 | NCI-H1437 | 1.05 | 1.08 | 1.07 | 1.01 | 0.314 | 0.952 | 1.09 | 0.788 | 0.962 | 0.423 | 0.645 | 0.682 | 0.613 | 0.681 | 0.239 | 0.95 | 1.11 | 0.827 | 0.964 | 0.401
9 | NCI-H1651 | 0.996 | 0.917 | 0.957 | 1.09 | 0.357 | 0.904 | 0.915 | 0.899 | 0.897 | 0.443 | 0.177 | 0.18 | 0.195 | 0.171 | 0.161 | 0.835 | 0.894 | 0.854 | 0.865 | 0.671
10 | NCI-H1666 | 0.867 | 0.908 | 0.804 | 0.817 | 0.681 | 1.02 | 0.906 | 0.794 | 0.775 | 0.549 | 0.757 | 0.74 | 0.729 | 0.804 | 0.755 | 0.743 | 1.08 | 0.82 | 1.03 | 0.619
11 | NCI-H1703 | 0.412 | 0.567 | 0.747 | 0.757 | 0.381 | 0.282 | 0.315 | 0.288 | 0.289 | 0.201 | 0.335 | 0.447 | 0.372 | 0.308 | 0.222 | 0.357 | 0.731 | 0.506 | 0.401 | 0.416
12 | NCI-H1734 | 0.865 | 0.938 | 0.86 | 0.84 | 0.467 | 0.722 | 0.684 | 0.616 | 0.688 | 0.598 | 0.645 | 0.646 | 0.611 | 0.564 | 0.496 | 0.73 | 0.731 | 0.612 | 0.636 | 0.345
13 | NCI-H1755 | 1.02 | 1.01 | 0.992 | 0.94 | 0.509 | 1.07 | 1 | 0.965 | 0.863 | 0.397 | 0.875 | 0.922 | 0.92 | 0.702 | 0.594 | 0.969 | 0.978 | 0.811 | 0.773 | 0.34
14 | NCI-H1792 | 0.608 | 0.508 | 0.565 | 0.257 | 0.468 | 0.55 | 0.717 | 0.768 | 0.351 | 0.358 | 0.826 | 0.598 | 0.303 | 0.235 | 0.219 | 1.2 | 0.946 | 1.01 | 0.767 | 0.382
15 | NCI-H1915 | 1.08 | 1.14 | 1.13 | 1.11 | 1.08 | 1.01 | 1.17 | 1.08 | 1.05 | 0.971 | 0.215 | 0.273 | 0.245 | 0.266 | 0.269 | 0.887 | 1 | 0.983 | 0.907 | 0.494
16 | NCI-H1944 | 1.19 | 1.17 | 1.16 | 1.13 | 1 | 0.894 | 0.705 | 0.851 | 0.782 | 0.731 | 0.424 | 0.41 | 0.42 | 0.413 | 0.512 | 1.23 | 1.34 | 1.09 | 1.25 | 0.887
